Reference: publication PMC3214022, “Plasmodium falciparum Parasites Are Killed by a Transition State Analogue of Purine Nucleoside Phosphorylase in a Primate Animal Model” (PLoS ONE, 2011)
“And” between values parts separate entries of the source, which are not always exact repeats. Equal values may be shown once.

Experiment: Weights, CBC and blood chemistry, Table S1 sheet PD-1 (efficacy study in P. falciparum-infected Aotus)
Format: in vivo, Aotus lemurinus lemurinus
Protocol: Laboratory bred Aotus lemurinus lemurinus monkeys (0.75–0.89 kg) were maintained as described. […] Blood samples were collected before the treatment started (t = 0), 0.05 h, 0.5 h, 1 h, 2 h, 6 h, 24 h, 48 h, and 6, 12 and 18 days after the first dose from each monkey and processed as described below. Pharmacokinetic parameters were calculated using PKSolver. For efficacy studies, Aotus monkeys were inoculated intravenously with 5×10^6 parasites of the FVO strain of P. falciparum in an approved treatment protocol. […] Parasitaemia was determined by Giemsa-stained thick blood smears prepared daily from the marginal ear vein [41]. Blood samples were collected from each monkey and transferred to tubes containing lithium heparin, centrifuged and both plasma and blood cells were frozen at −80 °C until analysis. Animals received a physical examination and blood chemistry profiles were monitored after treatment as described previously. Any monkey not responding appropriately to treatment was cured of its infection with mefloquine (40 mg kg^−1). […] The day of clearance is defined as the first of three consecutive days in which the thick blood films are parasite negative. The day of recrudescence is the first of three consecutive days of positive thick blood films after a period of clearance. Suppression is defined as a transient decrease in the parasite count post-treatment without clearance.

[1] = IV 10 mg/kg once a day/3 days, day -2, 10 mg/kg
[2] = oral 50 mg/kg once a day/3 days, day 9, 50 mg/kg
[3] = oral 50 mg/kg once a day/3 days, day 12, 50 mg/kg
[4] = oral 50 mg/kg once a day/3 days, day 19, 50 mg/kg
[5] = oral 50 mg/kg once a day/3 days, day 25, 50 mg/kg
[6] = oral 50 mg/kg once a day/3 days, day -2, 50 mg/kg

In the case of `Nc1nc2c(CN3CC(O)C(CO)C3)c[nH]c2c(=O)[nH]1` (centres unmarked) [BCX4945, 4′-deaza-1′-aza-2′-deoxy-1′-(9-methylene)-Immucillin-G], the “Mean Platelet Volume” value [1] is reported as 14.7 fL and 12.2 fL and 11 fL and 10.9 fL and 13.1 fL, the “Monocytes (%)” value [1] is reported as 5.1% and 3.6% and 2.9% and 6.5% and 4.2% and the “Monocytes (x 103/ul)” value [1] is reported as 0.9 x 103/ul and 0.8 x 103/ul and 0.6 x 103/ul and 0.5 x 103/ul and 0.7 x 103/ul. The Platelets [1] was 354000 µL⁻¹ and 250000 µL⁻¹ and 406000 µL⁻¹ and 431000 µL⁻¹ and 270000 µL⁻¹ and 371000 µL⁻¹, the “Red Cell Distribution Width” value [1] was 12.5% and 12.2% and 11.4% and 12.4% and 12% and the Reticulocytes [1] was 1.9% and 1% and 1.5% and 1.2% and 1.3%. For the same compound, the WEIGHT [1] was 680 g and 766 g and 832 g and 849 g and 684 g, the “Blood Urea Nitrogen” value [2] was 14.3 mg/dL and 15 mg/dL and 13.15 mg/dL and the Creatinine [2] was 0.672 mg/dL and 0.825 mg/dL and 0.587 mg/dL. For the same compound, the Erythrocytes [2] was 4.76e+06 µL⁻¹ and 5.14e+06 µL⁻¹ and 3.94e+06 µL⁻¹, the “Granulocytes (%)” value [2] was 21.7% and 25.8% and 21.1% and the “Granulocytes (x 103/ul)” value [2] was 4.4 x 103/ul and 2.3 x 103/ul and 3.3 x 103/ul. The Hematocrit [2] was 38.1% and 39.5% and 32.5%, the Hemoglobin [2] was 12.9 g/dL and 13.5 g/dL and 10.8 g/dL and the “Lymphocytes (%)” value [2] was 61% and 66.1% and 63.4%. For the same compound, the “Mean Corpuscular Hemoglobin” value [2] was 27.1 pg and 26.3 pg and 27.5 pg, the “Mean Corpuscular Volume” value [2] was 80.1 fL and 76.8 fL and 82.4 fL and the “Mean Hemoglobin Content” value [2] was 33.8 g/dL and 34.2 g/dL and 33.4 g/dL. For the same compound, the “Mean Platelet Volume” value [2] was 11 fL and 13.9 fL, the “Monocytes (%)” value [2] was 17.3% and 8.1% and 15.5% and the “Red Cell Distribution Width” value [2] was 13.3% and 12% and 10.8%. For the same compound, the Reticulocytes [2] was 2.5% and 1.1% and 1%, the WEIGHT [2] was 851 g and 873 g and 776 g and the “Blood Urea Nitrogen” value [3] was 23.05 mg/dL and 23.55 mg/dL and 26.95 mg/dL. The Creatinine [3] was 0.563 mg/dL and 0.686 mg/dL and 0.565 mg/dL, the Erythrocytes [3] was 4.04e+06 µL⁻¹ and 4.25e+06 µL⁻¹ and 2.77e+06 µL⁻¹ and the “Glutamate Pyruvate Transaminase” value [3] was 46.7 U/L and 46.1 U/L and 37.8 U/L. For the same compound, the “Granulocytes (%)” value [3] was 17.9% and 26.3% and 14.8%, the Hematocrit [3] was 33.2% and 32.4% and 22.7% and the Hemoglobin [3] was 7.7 g/dL. The Leucocytes [3] was 42000 µL⁻¹ and 22200 µL⁻¹ and 22000 µL⁻¹, the “Lymphocytes (%)” value [3] was 68.1% and 66.2% and 76.8% and the “Lymphocytes (x 103/ul)” value [3] was 28.6 x 103/ul and 14.7 x 103/ul and 16.9 x 103/ul. The “Mean Corpuscular Hemoglobin” value [3] was 27.7 pg and 26.4 pg and 27.6 pg, the “Mean Corpuscular Volume” value [3] was 82.1 fL and 76.4 fL and 81.9 fL and the “Mean Hemoglobin Content” value [3] was 33.7 g/dL and 34.5 g/dL. For the same compound, the “Mean Platelet Volume” value [3] was 11.3 fL and 14.6 fL and 11.8 fL, the “Monocytes (%)” value [3] was 14% and 7.5% and 8.4% and the “Red Cell Distribution Width” value [3] was 13.4% and 11.3%. For the same compound, the Reticulocytes [3] was 1.9% and 2% and 2.3%, the WEIGHT [3] was 800 g and 804 g and 738 g and the “Blood Urea Nitrogen” value [4] was 16.75 mg/dL and 18.3 mg/dL and 27.85 mg/dL. For the same compound, the Creatinine [4] was 0.614 mg/dL and 0.695 mg/dL and 0.678 mg/dL, the Erythrocytes [4] was 3.94e+06 µL⁻¹ and 4.96e+06 µL⁻¹ and 3.82e+06 µL⁻¹ and the “Granulocytes (%)” value [4] was 9.6% and 17.6% and 10.1%. For the same compound, the Hematocrit [4] was 35.3% and 41.8% and 36.2%, the Hemoglobin [4] was 11.5 g/dL and 14 g/dL and 11.6 g/dL and the “Lymphocytes (%)” value [4] was 79% and 75.3% and 78.4%. For the same compound, the “Mean Corpuscular Hemoglobin” value [4] was 29.3 pg and 28.3 pg and 30.3 pg, the “Mean Corpuscular Volume” value [4] was 89.8 fL and 84.2 fL and 94.8 fL and the “Mean Hemoglobin Content” value [4] was 32.6 g/dL and 33.6 g/dL and 32 g/dL. For the same compound, the “Mean Platelet Volume” value [4] was 12.3 fL and 13.3 fL and 19.7 fL, the “Monocytes (%)” value [4] was 11.4% and 11.5% and the “Monocytes (x 103/ul)” value [4] was 6.8 x 103/ul and 3.9 x 103/ul. The “Red Cell Distribution Width” value [4] was 22.7% and 21.9% and 24.4%, the Reticulocytes [4] was 1.7% and 1.6% and 1.8% and the WEIGHT [4] was 832 g and 847 g and 757 g. For the same compound, the “Blood Urea Nitrogen” value [5] was 24.4 mg/dL and 16 mg/dL and 21 mg/dL, the Creatinine [5] was 0.52 mg/dL and 0.578 mg/dL and 0.663 mg/dL and the Erythrocytes [5] was 4.62e+06 µL⁻¹ and 4.69e+06 µL⁻¹ and 5.44e+06 µL⁻¹. For the same compound, the “Glutamate Pyruvate Transaminase” value [5] was 17.7 U/L and 27.2 U/L, the Hematocrit [5] was 40.4% and 41.4% and 44.4% and the Hemoglobin [5] was 13.5 g/dL and 14 g/dL and 15.5 g/dL. For the same compound, the Leucocytes [5] was 15400 µL⁻¹ and 16400 µL⁻¹ and 15300 µL⁻¹, the “Lymphocytes (%)” value [5] was 65.9% and 79.6% and 75.3% and the “Lymphocytes (x 103/ul)” value [5] was 10.1 x 103/ul and 13.1 x 103/ul and 11.5 x 103/ul. For the same compound, the “Mean Corpuscular Hemoglobin” value [5] was 29.3 pg and 29.8 pg and 28.6 pg, the “Mean Corpuscular Volume” value [5] was 87.4 fL and 88.1 fL and 81.7 fL and the “Mean Hemoglobin Content” value [5] was 33.5 g/dL and 33.7 g/dL and 35 g/dL. The “Mean Platelet Volume” value [5] was 14.1 fL, the “Monocytes (%)” value [5] was 7.3% and 7% and 11.7% and the “Monocytes (x 103/ul)” value [5] was 1.1 x 103/ul and 1.8 x 103/ul. The “Red Cell Distribution Width” value [5] was 19.2% and 20.4% and 17.9%, the Reticulocytes [5] was 1.3% and 2.1% and 2% and the WEIGHT [5] was 748 g and 818 g and 853 g. The “Mean Platelet Volume” value (oral 50 mg/kg once a day/3 days, day -2) was 12.8 fL, the “Blood Urea Nitrogen” value [6] was 18 mg/dL and 23.05 mg/dL and the Creatinine [6] was 0.679 mg/dL and 0.554 mg/dL. For the same compound, the Erythrocytes [6] was 7.17e+06 µL⁻¹ and 6.1e+06 µL⁻¹ and 5.2e+06 µL⁻¹, the “Granulocytes (%)” value [6] was 33.3% and 31.8% and 22.4% and the Hematocrit [6] was 54.4% and 48% and 42.5%. The Hemoglobin [6] was 19.3 g/dL and 17 g/dL and 14.7 g/dL, the Leucocytes [6] was 16900 µL⁻¹ and 15400 µL⁻¹ and 11300 µL⁻¹ and the “Lymphocytes (%)” value [6] was 61.5% and 64.5% and 73.1%. The “Lymphocytes (x 103/ul)” value [6] was 10.4 x 103/ul and 9.9 x 103/ul and 8.3 x 103/ul, the “Mean Corpuscular Hemoglobin” value [6] was 26.8 pg and 27.8 pg and 28.2 pg and the “Mean Corpuscular Volume” value [6] was 75.8 fL and 78.6 fL and 81.7 fL. For the same compound, the “Mean Hemoglobin Content” value [6] was 35.4 g/dL and 34.6 g/dL, the “Mean Platelet Volume” value [6] was 10.2 fL and 10.4 fL and the “Monocytes (%)” value [6] was 5.2% and 3.7% and 4.5%. For the same compound, the “Monocytes (x 103/ul)” value [6] was 0.9 x 103/ul and 0.6 x 103/ul and 0.5 x 103/ul, the Platelets [6] was 463000 µL⁻¹ and 389000 µL⁻¹ and 372000 µL⁻¹ and the “Red Cell Distribution Width” value [6] was 11.8% and 13.6% and 10.4%. The Reticulocytes [6] was 1.8% and 2% and 1.7% and the WEIGHT [6] was 804 g and 800 g and 738 g.
